Results published in patent US8426364B2, “Method of preventing progression of hypertension-induced heart failure with PKC peptides” (The Board of Trustees of the Leland Stanford Junior …, priority 0011, dated 2013).

Tests used:
Dahl salt-sensitive rats [1] = test: Histological analysis of left ventricle (Masson's trichrome, H&E); assay type: in vivo, rat
Protocol: For morphometric analysis, left ventricle (LV) specimens from 17-week-old rats (n=4 for each group) were fixed with 10% buffered formalin and embedded in paraffin. Several sections were prepared from each specimen and stained with either hematoxylin and eosin (H&E) for assessment of inflammation and proliferation of vascular cells, or with Masson's trichrome stain to assess the area of cardiac fibrosis using a point-counting method (22, 23).

Dahl salt-sensitive rats [2] = test: Hypertension-induced heart failure rat model (survival, echocardiography, blood pressure, body weight); assay type: in vivo; settings: for survival: treated for six weeks, compared to TAT control peptide; for Systolic Wall Stress: calculated (SBP × ESD)/[4 × PWT × (1 + PWT/ESD)]; for Systolic Wall Stress / EDD (LV end-diastolic diameter) / ESD (LV end-systolic diameter) / FS (LV fractional shortening) / PWT (LV posterior wall thickness): mean ± SEM
Protocol: To determine whether εPKC plays any role in the transition to heart failure and death, HS rats were treated with the selective εPKC inhibiting peptide, TAT47-57-εV1-2 (εV1-2; 2.8 μg/kg/day using a subcutaneous Alzet pump (26)) or with saline as a control (HS-control) from the age of 11 weeks (when compensatory hypertrophy is seen) to 17 weeks (when heart failure is apparent; FIG. 1A)). Another group of hypertensive rats was treated for the same period with a common clinical treatment, the angiotensin II receptor type 1 blocker (ARB, olmesartan, Olm; 3 mg/kg/day).
Animal protocols were approved by the Stanford University Institutional Animal Care and Use Committee. Dahl salt-sensitive rats provide a reliable animal model of hypertension-induced heart failure. When placed on 8% NaCl-containing diet from the age of 6 weeks (HS rats), the rats develop compensative left ventricular hypertrophy by the age of 11 weeks, and die from heart failure when they reach 16 to 21 weeks (21, 25). Male Dahl salt-sensitive rats were fed with an 8% NaCl-containing diet (Dahl-high-salt) or with a 0.3% NaCl low salt diet (LS-control; n=25) from the age of 6 weeks onward as previously reported (3, 21). Dahl-high-salt rats were treated between the ages of 11 and 17 weeks with the selective εPKC inhibiting peptide, TAT47-57-εV1-2 (εV1-2; n=10, 2.8 μg/kg/day), with TAT47-57-εV1-1 (εV1-1; n=14, 2.8 μg/kg/day), or with saline as a control (HS-Control; n=12), using osmotic pumps implanted subcutaneously. A fourth group was treated with angiotensin II receptor type 1 blocker, olmesartan (ARB; n=12, 3 mg/kg/day in 0.5% carboxymethylcellulose) delivered by daily gavage for the same period. A fifth group was treated from 15 to 17 weeks of age with the selective εPKC activating peptide, TAT47-57-ΨεRACK (ΨεRACK; n=17, 2.8 μg/kg/day) using an osmotic pump implanted subcutaneously (FIG. 1).
The osmotic pumps were replaced every two weeks, but were discontinued after the age of 17 weeks because half of the HS-control rats died by that age. Additional groups were treated with εV1-2 (using the Alzet pump) together with ARB (n=12) or with ARB alone (n=13) from 11 to 19 weeks of age (FIG. 6). Survival rate, fractional shortening and blood pressure were evaluated in these groups. Systolic blood pressure was measured by the tail-cuff method (BP-2000 Blood Pressure Analysis System, Visitech Systems, Inc), and fractional shortening was measured by transthoracic echocardiography (Vivid 7, GE). Additional control Dahl-high-salt rats were treated with TAT47-57 carrier peptide between 11 to 17 weeks or between 15 to 17 weeks, with vehicle for ARB (0.5% carboxymethylcellulose) or were left untreated and evaluated for survival rate, cardiac function and blood pressure.

Dahl salt-sensitive rats [3] = test: as above; assay type: in vivo; settings: age of 11, 13, 15 and 17 weeks; β peptide study
92 genes = test: Real-time PCR gene expression in LV tissue; assay type: in vivo, rat; settings: LV from 17-week-old rats; 92 genes examined
Protocol: In another study, the effects of pharmacological inhibition or activation of εPKC and olmesartan on gene expression profile was analyzed. To address the molecular differences in the protective effects induced by εPKC inhibition and olmesartan, real-time PCR was used to monitor changes in gene expression resulting from each treatment. The effects of chronic treatment (as above) with the εPKC inhibitor (TAT47-57-εV1-2), the εPKC activator (TAT47-57-ΨεRACK) or olmesartan (ARB) in LV from 17-week-old rats on the expression of 92 genes was examined. […]
Two μg of total RNA extracted from the LV tissues of each […] rat (n=6 for each group) were converted to first-strand cDNA by reverse transcription using High Capacity cDNA Archive kit (Applied Biosystems). […] The fluorescence signals were normalized to the ubiquitously expressed housekeeping gene, β-actin. Fold-changes of mRNA expression of each group compared to the LS-control were determined by comparing cycle threshold values (24). Statistical analysis was assessed by 1-way factorial ANOVA with Fisher's test. […]

[4] = 17 weeks of age, high-salt rats, εV1-2 and Olm treated 11 to 17 weeks, ΨεR 15 to 17 weeks
[5] = 24 weeks of age, treated 11 to 19 weeks of age

CC[C@H](C)[C@H](NC(=O)[C@@H]1CCCN1C(=O)[C@H](C)NC(=O)[C@H](CC(=O)O)NC(=O)[C@H](Cc1c[nH]cn1)NC(=O)[C@@H](N)CSSC[C@H](N)C(=O)N[C@@H](Cc1ccc(O)cc1)C(=O)NCC(=O)N[C@@H](CCCNC(=N)N)C(=O)N[C@@H](CCCCN)C(=O)N[C@@H](CCCCN)C(=O)N[C@@H](CCCNC(=N)N)C(=O)N[C@@H](CCCNC(=N)N)C(=O)N[C@@H](CCC(N)=O)C(=O)N[C@@H](CCCNC(=N)N)C(=O)N[C@@H](CCCNC(=N)N)C(=O)N[C@@H](CCCNC(=N)N)C(=O)O)C(=O)NCC(=O)N[C@@H](Cc1ccc(O)cc1)C(=O)N[C@@H](CC(=O)O)C(=O)O [ΨεR]
arterial stenosis (Dahl salt-sensitive rats [1]; hypertensive rats, chronic treatment): induced arterial stenosis | arterial stenosis (Dahl salt-sensitive rats [1]; normotensive Dahl salt-sensitive rats on a low-salt diet): did not cause arterial stenosis

βIIV5-3: βIIV5-3 peptide inhibitor QEVIRN (SEQ ID NO: 3), from the V5 domain of βIIPKC (Synthetic peptide inhibitor)
left ventricular weight to body weight ratio (LVW/BW) (Dahl salt-sensitive rats [2]; 17-weeks old rats): reduced | fractional shortening (Dahl salt-sensitive rats [2]; at 17 weeks, vs TAT control, in words): significantly reduced fractional shortening | wall stress (Dahl salt-sensitive rats [2]; hypertensive rats, in words): reduces wall stress | survival (Dahl salt-sensitive rats [2]): prolonged survival significantly longer than treatment with the βIV5-3 peptide inhibitor | systolic blood pressure (Dahl salt-sensitive rats [3]): less than in the TAT or βIV5-3 peptide-treated animals

CCCc1nc(C(C)(C)O)c(C(=O)O)n1Cc1ccc(-c2ccccc2-c2nnn[nH]2)cc1 [Olm, olmesartan]
reduction of fibrosis in LV (Dahl salt-sensitive rats [1]; as compared with HS-control, 17-week-old rats, Masson's trichrome): ~50% | Systolic Wall Stress (Dahl salt-sensitive rats [2]; 17 weeks of age): 50.7 ± 4.4 g/cm^2 | EDD (LV end-diastolic diameter) (Dahl salt-sensitive rats [2]; [4]): 7.3 ± 0.2 mm | ESD (LV end-systolic diameter) (Dahl salt-sensitive rats [2]; [4]): 3.1 ± 0.2 mm | FS (LV fractional shortening) (Dahl salt-sensitive rats [2]; [4]): 58.4 ± 1.6 % | PWT (LV posterior wall thickness) (Dahl salt-sensitive rats [2]; [4]): 1.5 ± 0.04 mm | EDD (LV end-diastolic diameter) (Dahl salt-sensitive rats [2]; [5]): 7.9 ± 0.2 mm | ESD (LV end-systolic diameter) (Dahl salt-sensitive rats [2]; [5]): 4.9 ± 0.5 mm | FS (LV fractional shortening) (Dahl salt-sensitive rats [2]; [5]): 38.3 ± 4.6% | PWT (LV posterior wall thickness) (Dahl salt-sensitive rats [2]; [5]): 1.5 ± 0.03 mm | Systolic Wall Stress (Dahl salt-sensitive rats [2]; 24 weeks of age, treated 11 to 19 weeks): 105.8 ± 13.6 g/cm^2 | number of genes with expression modified by this treatment but not the other (92 genes): 15 genes

βIV5-3: βIV5-3 PKC peptide inhibitor KLFIMN (SEQ ID NO: 2), from the V5 domain of βIPKC (Synthetic PKC peptide inhibitor)
survival (Dahl salt-sensitive rats [2]): prolonged survival
